According to patent US20200255415A1, “TETRASUBSTITUTED ALKENE COMPOUNDS AND THEIR USE FOR THE TREATMENT OF BREAST CANCER” (Eisai R&D Management Co., Ltd., priority 2016, published 2020):
Read-outs that look alike come from different tables or passages of the source.

Legend:
MCF7 WT = experiment: In vitro proliferation (viability) assay, MCF7-WT cells, CellTiter-Glo; type: cell-based; conditions: Homo sapiens, MCF7, 144 h
Description: (§1) MCF7 BUS cells (Coser, et al., (2003) PNAS 100(24): 13994-13999) were maintained in Dulbecco's Modified Eagle Medium supplemented with 10% FBS, 4 mM L-glutamine and 1× non-essential amino acids. Lenti-X 293T cells (Clontech, Cat #632180) were routinely cultured in Dulbecco's Modified Eagle Medium supplemented with 10% FBS.
(§2) The QuikChange II XL Site-Directed Mutagenesis Kit (Agilent Technologies, Cat #200523) was used to generate Y537S, Y537C, Y537N and D538G mutations within the ERα exon 8. […]
(§3) MCF7-WT and -Y537S cells were seeded at 1500 cells/well in black-walled 96-well plates (assay plates, Costar, Cat #3904). In parallel, cells were also seeded in a separate 96-well plate (8 wells/cell line, control plate) for which a CTG (CellTiter-Glo@ Luminescent Viability Assay. Promega, Cat # G7572) was measured the following day (day 0 reading). The day 0 reading was used for the GI50 calculation at the termination of the experiment. […] On day 6, CTG was measured and compared to day 0 readings from control plate to assess GI50.

MCF7 Y537S = experiment: In vitro proliferation (viability) assay, MCF7-Y537S cells, CellTiter-Glo; type: cell-based; conditions: Homo sapiens, MCF7, 144 h
Description: as §1, §2, §3

[1] = system: MCF7 cells expressing ERα Y537S/N/C, D538G; experiment: In vitro proliferation of wild-type and mutant ER-bearing MCF7 lines with clinical therapies (FIG. 1); type: cell-based, human; conditions: ectopic expression of ERα Y537S/N/C
Description: 48 h post-transfection, virus containing media was filtered and added to MCF7 cells in the presence of 8 μg/ml polybrene overnight. Two days following infection, cells were placed under selection with 10 μg/ml blasticidin for 2 weeks for stable expression.
In parallel, cells were also seeded in a separate 96-well plate (8 wells/cell line, control plate) for which a CTG (CellTiter-Glo@ Luminescent Viability Assay. Promega, Cat # G7572) was measured the following day (day 0 reading). The day 0 reading was used for the GI50 calculation at the termination of the experiment. The day following seeding, compounds were added to assay plates. Briefly, a 1:4 serial dilution was prepared in DMSO at 200× final concentration for a total of 10 concentrations (9 dilutions containing compound and one is DMSO only). Serially diluted compounds were pipetted into medium to prepare a compound-medium mix at 10× final concentration. 10 μl of compound-medium mix was added to MCF7-WT and -Y537S cells at 3 wells/concentration (triplicate for each concentration). On day 3, media-compound was removed and replaced with fresh media/compound as described above. On day 6, CTG was measured and compared to day 0 readings from control plate to assess GI50.

[2H]C([2H])([2H])N(C(=O)/C=C/CNCCOc1ccc(/C(=C(/CC(F)(F)F)c2ccccc2)c2ccc3[nH]nc(F)c3c2)cc1)C([2H])([2H])[2H] [Compound 22, (E)-N,N-di(^2H3)methyl-4-((2-(4-((E)-4,4,4-trifluoro-1-(3-fluoro-1H-indazol-5-yl)-2-phenylbut-1-en-1-yl)phenoxy)ethyl)amino)but-2-enamide]
GI50 (MCF7 WT; read-out: MCF7 WT GI50 (nM)): 1.62 ± 0.87 nM | GI50 (MCF7 Y537S; read-out: MCF7 Y537S GI50 (nM)): 6.19 ± 4.84 nM

O=C(CCCNCCOc1ccc(/C(=C(/CC(F)(F)F)c2ccccc2)c2ccc3[nH]ncc3c2)cc1)N1CCCC1 [Compound 42, (E)-1-(pyrrolidin-1-yl)-4-((2-(4-(4,4,4-trifluoro-1-(1H-indazol-5-yl)-2-phenylbut-1-en-1-yl)phenoxy)ethyl)amino)butan-1-one]
GI50 (MCF7 WT; 6 day treatment, CTG, average ± SD (number of trials), free base and/or salt forms, read-out: MCF7 WT GI50): 1.39 ± 0.56 nM | GI50 (MCF7 Y537S; 6 day treatment, CTG, average ± SD (number of trials), free base and/or salt forms, read-out: MCF7 Y537S GI50): 28.4 ± 32.6 nM

C[C@]12CC[C@@H]3c4ccc(O)cc4C[C@@H](CCCCCCCCC[S+]([O-])CCCC(F)(F)C(F)(F)F)[C@H]3[C@@H]1CC[C@@H]2O (stereo partly shown) [fulvestrant]
Proliferation effect in ERα mutant-bearing MCF7 lines relative to control lines [1]: conferred phenotypic resistance

O=C(c1ccc(OCCN2CCCCC2)cc1)c1c(-c2ccc(O)cc2)sc2cc(O)ccc12 [raloxifene]
Proliferation effect in ERα mutant-bearing MCF7 lines relative to control lines [1]: conferred phenotypic resistance

CC/C(=C(\c1ccccc1)c1ccc(OCCN(C)C)cc1)c1ccccc1 [tamoxifen]
Proliferation effect in ERα mutant-bearing MCF7 lines relative to control lines [1]: conferred phenotypic resistance
